# Test results published in ChEMBL document CHEMBL1142667, “Modulation of MRP-1-mediated multidrug resistance by indomethacin analogues” (J Med Chem, 2005).
# Active and inactive are the calls of the source. No cut-off for these calls is given here.
# Test system: T98G
# Assay: Effect of compound (10 uM) on doxorubicin-induced cytotoxicity towards T98G cell line expressing multidrug resistance associated protein 1 (MRP-1); Very active
# Format: functional, cell-based
# Details: Homo sapiens
row,SMILES,Effect
1,COc1ccc2c(c1)c(CCCC(=O)O)c(C)n2C(=O)c1ccc(Cl)cc1,Active
2,COc1ccc2c(c1)c(CCC(=O)O)c(C)n2C(=O)c1ccc(Br)cc1,Active
3,Cc1ccc2c(c1)c(CCC(=O)O)c(C)n2C(=O)c1ccc(Cl)cc1,Active
4,O=C(O)c1ccc2c(c1)c1c(n2C(=O)c2ccc(Cl)cc2)CCCC1,Active
5,COc1ccc2c(c1)c(CCC(=O)O)c(C)n2C(=O)c1ccc(Cl)cc1,Active
6,Cc1ccc2c(c1)c(CCCC(=O)O)c(C)n2C(=O)c1ccc(Cl)cc1,Active
7,COc1ccc2c(c1)c(CCCC(=O)O)c(C)n2C(=O)c1ccc(Br)cc1,Active
8,O=C(O)c1ccc2c(c1)c1c(n2C(=O)c2ccc(Cl)cc2)CCSC1,Active
9,COc1ccc2c(c1)c(CC(=O)O)c(C)n2C(=O)c1ccc(Br)cc1,Active

# Test system: T98G
# Assay: Effect of compound (10 uM) on doxorubicin-induced cytotoxicity towards T98G cell line expressing multidrug resistance associated protein 1 (MRP-1)
# Format: functional, cell-based
# Details: Homo sapiens
row,SMILES,Effect
1,COc1ccc2c(c1)c(CCC(=O)O)c(C)n2C(=O)c1ccc(-c2ccccc2)cc1,Active

# Test system: T98G
# Assay: Effect of compound (10 uM) on doxorubicin-induced cytotoxicity towards T98G cell line expressing multidrug resistance associated protein 1 (MRP-1); Active
# Format: functional, cell-based
# Details: Homo sapiens
row,SMILES,Effect
1,O=C(c1ccc(-c2ccccc2)cc1)n1c2c(c3cc(S(=O)(=O)O)ccc31)CSCC2,Active
2,COc1ccc2c(c1)c(CCCC(=O)O)c(C)n2C(=O)c1ccccn1,Active
3,Cc1c(Cc2ccc(O)cc2)c2cc(S(=O)(=O)O)ccc2n1C(=O)c1ccc(Cl)cc1,Active
4,COc1ccc2c(c1)c(CCCC(=O)O)c(C)n2C(=O)c1ccc(N(C)C)cc1,Active
5,O=C(c1ccc(-c2ccccc2)cc1)n1c2c(c3cc(S(=O)(=O)O)ccc31)CCCC2,Active
6,COc1ccc2c(c1)c(CCCC(=O)O)c(C)n2C(=O)c1cccs1,Active
7,O=C(c1ccccc1)N1CCc2c(c3cc(S(=O)(=O)O)ccc3n2C(=O)c2ccc(Cl)cc2)C1,Active
8,COc1ccc2c(c1)c(CC(=O)O)c(C)n2C(=O)c1ccc(-c2ccccc2)cc1,Active
9,COc1ccc2c(c1)c(CC(=O)O)c(C)n2C(=O)c1ccc(C)cc1,Active
10,COc1ccc2c(c1)c(CC(=O)O)c(C)n2C(=O)c1cccs1,Active
11,CCCCCCCCCCc1c(C)n(C(=O)c2ccc(Cl)cc2)c2ccc(C(=O)O)cc12,Active
12,O=C(c1ccccc1)N1CCc2c(c3cc(S(=O)(=O)O)ccc3n2C(=O)c2ccc(-c3ccccc3)cc2)C1,Active
13,O=C(c1ccccn1)n1c2c(c3cc(S(=O)(=O)O)ccc31)CCCC2,Active
14,COc1ccc2c(c1)c(CC(=O)O)c(C)n2C(=O)c1ccc(F)cc1,Active
15,COc1ccc2c(c1)c(CC(=O)O)c(C)n2C(=O)c1ccc(N(C)C)cc1,Active
16,Cc1c(CCCC(=O)O)c2cc(C(=O)O)ccc2n1C(=O)c1ccc(Cl)cc1,Active
17,CCOC(=O)CCCc1c(C)n(C(=O)c2ccc(N(C)C)cc2)c2ccc(OC)cc12,Active
18,O=C(c1ccccn1)n1c2c(c3cc(S(=O)(=O)O)ccc31)CSCC2,Active
19,COc1ccc2c(c1)c(CC(=O)O)c(C)n2C(=O)c1ccc(Cl)cc1,Active
20,COc1ccc2c(c1)c(CCC(=O)O)c(C)n2C(=O)c1ccc(N(C)C)cc1,Active

# Test system: T98G
# Assay: Effect of compound (10 uM) on doxorubicin-induced cytotoxicity towards T98G cell line expressing multidrug resistance associated protein 1 (MRP-1); Toxic
# Format: functional, cell-based
# Details: Homo sapiens
row,SMILES,Effect
1,Cc1c(Cc2ccccc2)c2cc(S(=O)(=O)O)ccc2n1C(=O)c1ccco1,Toxic
2,Cc1c(CCCC(=O)O)c2cc(S(=O)(=O)O)ccc2n1C(=O)c1ccc(Cl)cc1,Toxic
3,CCCCCCCCCCc1c(C)n(C(=O)c2ccc(-c3ccccc3)cc2)c2ccc(S(=O)(=O)O)cc12,Toxic
4,CN1CCc2c(c3cc(S(=O)(=O)O)ccc3n2C(=O)c2ccc(Cl)cc2)C1,Toxic
5,CCOC(=O)CCc1c(C)n(C(=O)c2cccs2)c2ccc(OC)cc12,Toxic

# Test system: T98G
# Assay: Effect of compound (10 uM) on doxorubicin-induced cytotoxicity towards T98G cell line expressing multidrug resistance associated protein 1 (MRP-1); Inactive
# Format: functional, cell-based
# Details: Homo sapiens
row,SMILES,Effect
1,O=C(c1ccccc1)N1CCc2c(c3cc(S(=O)(=O)O)ccc3n2C(=O)c2ccco2)C1,inactive
2,Cc1c(Cc2ccc(O)cc2)c2cc(S(=O)(=O)O)ccc2n1C(=O)c1ccc(-c2ccccc2)cc1,inactive
3,O=C(c1ccco1)n1c2c(c3cc(S(=O)(=O)O)ccc31)CSCC2,inactive
4,COc1ccc2c(c1)c(CC(=O)O)c(C)n2C(=O)c1ccccn1,inactive
5,Cc1c(CCC(=O)O)c2cc(S(=O)(=O)O)ccc2n1C(=O)c1ccco1,inactive
6,Cc1c(Cc2ccccc2)c2cc(S(=O)(=O)O)ccc2n1C(=O)c1ccc(-c2ccccc2)cc1,inactive
7,CCc1c(C)n(C(=O)c2ccco2)c2ccc(S(=O)(=O)O)cc12,inactive
8,COC(=O)CCc1c(C)n(C(=O)c2ccco2)c2ccc(S(=O)(=O)O)cc12,inactive
9,O=C(c1ccco1)n1c2c(c3cc(S(=O)(=O)O)ccc31)CCCC2,inactive
10,O=C(c1ccc(Cl)cc1)n1c2c(c3cc(S(=O)(=O)O)ccc31)CCCCCC2,inactive
11,COc1ccc2c(c1)c(CCC(=O)O)c(C)n2C(=O)c1ccccn1,inactive
12,CCCCCCCCCCc1c(C)n(C(=O)c2ccc(Cl)cc2)c2ccc(S(=O)(=O)O)cc12,inactive
13,O=C(c1ccc(Cl)cc1)n1c2c(c3cc(S(=O)(=O)O)ccc31)CSCC2,inactive
14,COC(=O)CCCc1c(C)n(C(=O)c2ccco2)c2ccc(S(=O)(=O)O)cc12,inactive
15,O=C(c1ccc(Cl)cc1)n1c2c(c3cc(S(=O)(=O)O)ccc31)CCCC2,inactive
16,Cc1c(CCCC(=O)O)c2cc(S(=O)(=O)O)ccc2n1C(=O)c1ccco1,inactive
17,Cc1c(Cc2ccccc2)c2cc(S(=O)(=O)O)ccc2n1C(=O)c1ccc(Cl)cc1,inactive
18,Cc1c(CCCC(=O)O)c2cc(S(=O)(=O)O)ccc2n1C(=O)c1ccc(-c2ccccc2)cc1,inactive
19,CN1CCc2c(c3cc(S(=O)(=O)O)ccc3n2C(=O)c2ccc(-c3ccccc3)cc2)C1,inactive
20,COC(=O)CCCc1c(C)n(C(=O)c2ccc(Cl)cc2)c2ccc(S(=O)(=O)O)cc12,inactive
21,Cc1c(CC(=O)O)c2cc(Br)ccc2n1C(=O)c1ccco1,inactive
22,CCCCCCCCCCc1c(C)n(C(=O)c2ccco2)c2ccc(S(=O)(=O)O)cc12,inactive
23,COc1ccc2c(c1)c(CC(=O)O)c(C)n2C(=O)c1ccco1,inactive
24,CCc1c(C)n(C(=O)c2ccc(Cl)cc2)c2ccc(S(=O)(=O)O)cc12,inactive
